How the values were obtained:
Format in all cases: cell-based
E. coli ATCC 10536 = assay: Suspension test EN 1040, bactericidal activity; details: 1000 ppm of active substance
Experimental: (§1) The bactericidal activity of the substances of this invention was carried out in a suspension test corresponding to the European standard EN 1040 and compared with the activities of customary commercial products. For this, only relatively small modifications were made. The substances of the formula (1) were dissolved in water or ethanol to give a 1% strength stock solution. For determining the bactericidal activities, the test mixtures were selected such that 1000 ppm of active substance was present in an aqueous solution. The procedure was the same with the comparison samples. For the results shown in table 2, the test mixtures were inoculated with the following bacterial strains such that the stated germ densities were present in the test mixtures. E. coli ATCC 10536 1−2×10^7 CFU/ml The test mixtures were incubated at room temperature (22° C.+/−2° C.). After defined contact times, aliquots of 1 ml were taken in order to determine the surviving germ count. For the deactivation of the microbicidal activity of the diols, the aliquots were diluted in 1:10 dilution steps in a solution of TS broth with 10% Tween, 3% lecithin, 0.1% histidines and 0.5% sodium thiosulfate and the 10^−2 and 10^−3 dilution stages were used for determining the surviving germ count. For this purpose, corresponding aliquots were plated out on Caso medium with inhibitor (Merck) and incubated at 37° C. for 24 h. The ascertained surviving germ counts were in each case compared with a mixture containing water (water control) by determining the logarithmic reduction in the surviving germ counts based on the water control.

S. aureus ATCC 6538 = assay: Suspension test EN 1040, bactericidal activity; details: 1000 ppm of active substance
Experimental: as §1, with “S. aureus” for “E. coli”, “6538” for “10536”

P. aeruginosa ATCC 15442 = assay: Suspension test EN 1040, bactericidal activity; details: 1000 ppm of active substance
Experimental: as §1, with “P. aeruginosa” for “E. coli”, “15442” for “10536”

A. niger ATCC 6275 = assay: Suspension test EN 1275, fungicidal activity against molds; details: 1% active substance in the test
A. niger ATCC 16404 = assay: Preservation stress test, example formulation 2 (roll-on deodorant formulation); details: 1% active substance
C. albicans ATCC 10231 = assay: as above; details: 1% active substance

Row | SMILES | Microbicidal activity given as logarithmic reduction in germ count (E. coli ATCC 10536; contact time 5 min) | Microbicidal activity given as logarithmic reduction in germ count (E. coli ATCC 10536; contact time 30 min) | Microbicidal activity given as logarithmic reduction in germ count (E. coli ATCC 10536; contact time 24 h) | Microbicidal activity given as logarithmic reduction in germ count (S. aureus ATCC 6538; contact time 5 min) | Microbicidal activity given as logarithmic reduction in germ count (S. aureus ATCC 6538; contact time 30 min) | Microbicidal activity given as logarithmic reduction in germ count (S. aureus ATCC 6538; contact time 24 h) | Microbicidal activity given as logarithmic reduction in germ count (P. aeruginosa ATCC 15442; contact time 5 min) | Microbicidal activity given as logarithmic reduction in germ count (A. niger ATCC 6275; contact time 24 h) | Microbicidal activity given as logarithmic reduction in germ count (A. niger ATCC 6275; contact time 7 d) | Microbicidal activity given as logarithmic reduction in germ count (A. niger ATCC 16404; 48 h) | Microbicidal activity given as logarithmic reduction in germ count (A. niger ATCC 16404; 7 d) | Microbicidal activity given as logarithmic reduction in germ count (A. niger ATCC 16404; 14 d) | Microbicidal activity given as logarithmic reduction in germ count (C. albicans ATCC 10231; 48 h) | Microbicidal activity given as logarithmic reduction in germ count (C. albicans ATCC 10231; 7 d) | Microbicidal activity given as logarithmic reduction in germ count (C. albicans ATCC 10231; 14 d) | Microbicidal activity given as logarithmic reduction in germ count (P. aeruginosa ATCC 15442; contact time 30 min)
1 | CCCC(O)CO (centres unmarked) [1,2-Pentanediol, 1,2-pentanediol, reference compound] | <1 log. red. | <1 log. red. | <1 log. red. | <1 log. red. | <1 log. red. | <1 log. red. | <1 log. red. | <1 log. red. | <1 log. red. | 0 log. Red. | 0 log. Red. | 0 log. Red. | 0 log. Red. | 0 log. Red. | 0 log. Red. | 
2 | CCCCCCCCC(C)(CO)CO [OMPD, 2-octyl-2-methylpropane-1,3-diol] | >5 log. red. | >5 log. red. | >5 log. red. | <1 log. red. | 4.8 log. red. | >5 log. red. | 4.5 log. red. | <1 log. red. | 2.6 log. red. | 0 log. Red. | 0 log. Red. | 0 log. Red. | 0 log. Red. | 0 log. Red. | 0 log. Red. | 4.7 log. red.
3 | OCC1(CO)CC2CCC1C2 (centres unmarked) [2,2-DMNB, 2,2-dimethylolnorbornane] |  |  |  |  |  |  |  |  |  | 0 log. Red. | 0 log. Red. | 0 log. Red. | 0 log. Red. | ≧3 log. Red. | 0 log. Red. | 
4 | CC(C)C(C)(CO)CO [IMPD, 2-isopropyl-2-methylpropane-1,3-diol] |  |  |  |  |  |  |  |  |  | 0 log. Red. | 0 log. Red. | 0 log. Red. | 0 log. Red. | 0 log. Red. | 0 log. Red. | 
5 | OCC1(CO)CCCC1 [DMCP, 1,1-dimethylolcyclopentane] |  |  |  |  |  |  |  |  |  | 0 log. Red. | 0 log. Red. | 0 log. Red. | 0 log. Red. | 0 log. Red. | 0 log. Red. | 
6 | CCCCCC(CO)(CO)CCC [PPPD, 2-pentyl-2-propylpropane-1,3-diol] | >5 log. red. | >5 log. red. | >5 log. red. | <1 log. red. | 1.5 log. red. | >5 log. red. | 3.2 log. red. | 2.9 log. red. | >4 log. red. | 0 log. Red. | 0 log. Red. | 0 log. Red. | 0 log. Red. | 0 log. Red. | 0 log. Red. | 3.1 log. red.

— patent US20120152149A1, “USE OF 1,3-DIOLS AS BIOCIDES” (BASF SE, priority 2009, published 2012)
